The values below come from patent publication US20260263413A1 (priority 2019, published 2026).

One data set can be described thus: in vivo. The note with it: Sprague-Dawley, rat, 1.3 mg/kg.
Data set [1] can be described thus: Pharmacokinetic (PK) data from oral administration of DHM in enteric capsules, with or without sodium caprate. The class given is in vivo, Sprague-Dawley rats. The following applies: Sprague-Dawley, rat, blood; for Tmax / AUC / Cmax: po; for AUC: DHM AUC; for Cmax: DHM Cmax.
The conditions of data set [2]: background statement, ref. [31]; cited from earlier work.
A short description of data set [3]: Pharmacokinetic (PK) data from intravenous (IV) administration of DHM, blood samples analysed by LC-MS/MS. Format: in vivo, Sprague-Dawley rats. The following applies: Sprague-Dawley, rat, 1 mg/kg. On the procedure: The DUNHM was administered in an 0.9% saline solution. No sodium caprate (sodium decanoate, Na caprate) was administered.
The mark [4] stands for this setting: 1.1 mg/kg, 73.1±1.1 mg/kg crystalline DHM, enteric capsules (Eudragit L100-55 coated), Na caprate:DHM 0:1, FIG. 3A.
Setting [5] is: 70.6±2.7 mg/kg crystalline DHM, enteric capsules, sodium caprate approx. 141.2 mg/kg (2:1), FIG. 3D.
The mark [6] stands for this setting: 75.5±2.0 mg/kg crystalline DHM, enteric capsules, sodium caprate approx. 75.5 mg/kg (1:1), FIG. 3C.
The mark [7] stands for this setting: 92.6±3.0 mg/kg crystalline DHM, enteric capsules, sodium caprate approx. 23.2 mg/kg (1:4), FIG. 3B.

Each structure is given as a SMILES string.

Procedure for in vivo: A pharmacokinetic study can be carried out to evaluate animal pharmacokinetics.
A blood sample was collected from each rat at predetermined times and analyzed with LC-MS/MS. […] Error bars for each point in time based on the results for each of the rats in the set are shown. […] Bioavailability (Fabs) was calculated as
where AUCoral and Doral indicate the AUC and dosage for a given oral administration, and AUCIV and Div indicate the AUC and dosage for the intravenous (IV) administration set forth in Example 1, above.
Error bars for each point in time based on the results for each of the rats in the set are shown.

`O=C1c2c(O)cc(O)cc2O[C@H](c2cc(O)c(O)c(O)c2)[C@H]1O` [DHM, dihydromyricetin]: the figures for the bioavailability (in “in vivo” (DHM Bioavailability (Fabs)); in data set [1] (1.1 mg/kg)) were 34.1 ± 12.7% and 19.5 ± 9.5%, respectively. Besides, the AUC (in general, the area under the concentration-time curve, a measure of exposure) in “in vivo” (po, DHM AUC) was 314 ± 115 ng·h/mL; in data set [1] (setting [4]), 167 ± 83.3 ng·h/mL; in data set [1] (setting [5]), 431 ± 101 ng·h/mL; in data set [1] (setting [6]), 284 ± 20.1 ng·h/mL; in data set [1] (setting [7]), 222 ± 44.3 ng·h/mL; in data set [3], 11.6 ± 4.9 ng·h/mL. Further, the Cmax (as a rule, the maximum level reached in the sampled fluid or tissue) worked out at 46.2 ± 4 ng/mL in “in vivo” (po, DHM Cmax); 27.9 ± 1.5 ng/mL in data set [1] (setting [4]); 70.2 ± 6.5 ng/mL in data set [1] (setting [5]); 62.3 ± 4.3 ng/mL in data set [1] (setting [6]); 52.7 ± 3.6 ng/mL in data set [1] (setting [7]); 12.5 ± 0.5 ng/mL in data set [3]. Moreover, the time to peak (Tmax) (as a rule, the time at which the peak concentration occurs) is 4.7 ± 1.8 h in “in vivo” (po, Tmax); 5.4 ± 2.6 h in data set [1] (setting [4]); 4 h in data set [1] (setting [5]); 4 h in data set [1] (setting [6]); 6 h in data set [1] (setting [7]). Moreover, the oral bioavailability result in data set [2] is listed as “less than 5%”.
